Experiments:
[1] = target: T1, human dopamine D3 receptors (Homo sapiens, UniProt P35462); experiment: Dopamine D3 receptor binding, displacement of [125I]-iodosulpride; settings: membranes of HEK-293 cells stably expressing human D3; 0.1 nM [125I]-iodosulpride
T1 construct: expressed in transfected cells; host or cells: HEK-293 cells (membranes)
Protocol: (§1) The substance to be tested was either dissolved in methanol/Chremophor® (BASF-AG) or in dimethyl sulfoxide and then diluted with water to the desired concentration.
(§2) Each assay mixture was run in triplicate.
The incubation buffer contained 50 mM tris, 120 mM NaCl, 5 mM KCl, 2 mM CaCl2, 2 mM MgCl2 and 0.1% bovine serum albumin, 10 μM quinolone and 0.1% ascorbic acid (prepared fresh daily). The buffer was adjusted to pH 7.4 with HCl.
(§3) After having been incubated at 25° C. for 60 minutes, the assay mixtures were filtered through a Whatman GF/B glass fiber filter under vacuum using a cell collecting device. The filters were transferred to scintillation viols using a filter transfer system. After 4 ml of Ultima Gold® (Packard) have been added, the samples were shaken for one hour and the radioactivity was then counted in a Beta-Counter (Packard, Tricarb 2000 or 2200CA). The cpm values were converted into dpm using a standard quench series and the program belonging to the instrument.
(§4) The inhibition curves were analyzed by means of iterative nonlinear regression analysis using the Statistical Analysis System (SAS) which is similar to the “LIGAND” program described by Munson and Rodbard.

[2] = target: T2, human dopamine D2L receptors (long isoform) (Homo sapiens, UniProt P14416); experiment: Dopamine D2L receptor binding, displacement of [125I] iodospiperone; settings: ratio Ki(D2L)/Ki(D3); HEK-293 membranes
T2 construct: expressed in transfected cells; host or cells: HEK-293 cells (membranes)
T2 sequence (P14416 whole entry, canonical isoform): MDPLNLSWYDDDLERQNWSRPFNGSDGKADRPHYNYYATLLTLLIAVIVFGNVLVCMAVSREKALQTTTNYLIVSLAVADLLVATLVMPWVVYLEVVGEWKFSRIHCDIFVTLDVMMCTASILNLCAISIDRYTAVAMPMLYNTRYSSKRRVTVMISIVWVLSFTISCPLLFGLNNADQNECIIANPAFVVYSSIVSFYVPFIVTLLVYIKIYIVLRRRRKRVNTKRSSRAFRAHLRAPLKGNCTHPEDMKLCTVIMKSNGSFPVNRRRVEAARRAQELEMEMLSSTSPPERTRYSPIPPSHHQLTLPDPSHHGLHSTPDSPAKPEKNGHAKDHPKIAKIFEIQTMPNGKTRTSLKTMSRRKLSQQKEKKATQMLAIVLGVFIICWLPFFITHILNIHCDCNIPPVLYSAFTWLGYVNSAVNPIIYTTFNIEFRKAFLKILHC
Protocol: as §1, §2
The incubation buffer contained 50 mM tris, 120 mM NaCl, 5 mM KCl, 2 mM CaCl2, 2 mM MgCl2 and 0.1% bovine serum albumin. The buffer was adjusted to pH 7.4 with HCl.
as §3, §4

T1 sequence (P35462 whole entry): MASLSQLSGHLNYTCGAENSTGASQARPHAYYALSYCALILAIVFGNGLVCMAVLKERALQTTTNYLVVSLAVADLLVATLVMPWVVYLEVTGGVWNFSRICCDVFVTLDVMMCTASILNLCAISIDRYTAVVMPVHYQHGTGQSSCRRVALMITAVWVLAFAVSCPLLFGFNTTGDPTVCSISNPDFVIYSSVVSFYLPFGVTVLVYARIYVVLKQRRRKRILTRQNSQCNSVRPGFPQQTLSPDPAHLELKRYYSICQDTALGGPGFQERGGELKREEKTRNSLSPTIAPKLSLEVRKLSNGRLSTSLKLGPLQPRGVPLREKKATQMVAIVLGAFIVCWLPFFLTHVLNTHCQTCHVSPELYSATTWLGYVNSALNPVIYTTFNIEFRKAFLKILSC

| Compound | Ki [1] [µM] | Selectivity vs. D2L, Ki(D2L)/Ki(D3) [2] |
| --- | --- | --- |
| Cc1nc(N2CCNCC2)ccc1NS(=O)(=O)c1ccc([C@H](C)C(F)F)cc1 [Example 9, 4-((S)-2,2-Difluoro-1-methyl-ethyl)-N-(2-methyl-6-piperazin-1-yl-pyridin-3-yl)-benzenesulfonamide] | < 0.01 | >50 |
| Cc1nc(N2CCNCC2)ccc1NS(=O)(=O)c1ccc([C@@H](C)C(F)F)cc1 [Example 10, 4-((R)-2,2-Difluoro-1-methyl-ethyl)-N-(2-methyl-6-piperazin-1-yl-pyridin-3-yl)-benzenesulfonamide] | < 0.01 | >50 |
| Cc1nc(N2CCNCC2)ccc1NS(=O)(=O)c1ccc([C@H](C)C(F)(F)F)cc1 [Example 13, 4-((S)-2,2,2-Trifluoro-1-methyl-ethyl)-N-(2-methyl-6-piperazin-1-yl-pyridin-3-yl)-benzenesulfonamide] | < 0.01 | >50 |
| Cc1nc(N2CCNCC2)ccc1NS(=O)(=O)c1ccc(C(C)C(F)(F)F)cc1 (centres unmarked) [Example 11, 4-(2,2,2-Trifluoro-1-methyl-ethyl)-N-(2-methyl-6-piperazin-1-yl-pyridin-3-yl)-benzenesulfonamide] | < 0.01 | >50 |
| COc1nc(N2CCNCC2)ccc1NS(=O)(=O)c1ccc([C@H](C)C(F)(F)F)cc1 [Example 18, N-(2-Methoxy-6-piperazin-1-yl-pyridin-3-yl)-4-((S)-2,2,2-trifluoro-1-methyl-ethyl)-benzenesulfonamide] | < 0.01 | >50 |
| Cc1nc(N2CCN[C@@H](C)C2)ccc1NS(=O)(=O)c1ccc([C@@H](C)CF)cc1 [Example 2, 4-((R)-2-Fluoro-1-methyl-ethyl)-N-[2-methyl-6-((S)-3-methyl-piperazin-1-yl)-pyridin-3-yl]-benzenesulfonamide] | < 0.01 | >50 |
| COc1nc(N2CCNCC2)ccc1NS(=O)(=O)c1ccc([C@@H](C)CF)cc1 [Example 14, 4-((R)-2-Fluoro-1-methyl-ethyl)-N-(2-methoxy-6-piperazin-1-yl-pyridin-3-yl)-benzenesulfonamide] | < 0.01 | >50 |
| COc1nc(N2CCNCC2)ccc1NS(=O)(=O)c1ccc(C(C)C(F)(F)F)cc1 (centres unmarked) [Example 17, N-(2-Methoxy-6-piperazin-1-yl-pyridin-3-yl)-4-(2,2,2-trifluoro-1-methyl-ethyl)-benzenesulfonamide] | < 0.01 | >50 |
| Cc1nc(N2CCNCC2)c(Br)cc1NS(=O)(=O)c1ccc([C@H](C)CF)cc1 [Example 7, N-(5-Bromo-2-methyl-6-piperazin-1-yl-pyridin-3-yl)-4-((S)-2-fluoro-1-methyl-ethyl)-benzenesulfonamide, reference compound] | < 1 | >10 |
| Cc1nc(N2CCNCC2)ccc1NS(=O)(=O)c1ccc(C(C)C(F)F)cc1 (centres unmarked) [Example 8, 4-(2,2-Difluoro-1-methyl-ethyl)-N-(2-methyl-6-piperazin-1-yl-pyridin-3-yl)-benzenesulfonamide] | < 0.01 | >50 |
| Cc1nc(N2CCNCC2)ccc1NS(=O)(=O)c1ccc([C@@H](C)CF)cc1 [Example 5, 4-((R)-2-Fluoro-1-methyl-ethyl)-N-[2-methyl-6-piperazin-1-yl-pyridin-3-yl]-benzenesulfonamide] | < 0.01 | >50 |
| COc1nc(N2CCNCC2)ccc1NS(=O)(=O)c1ccc([C@H](C)CF)cc1 [Example 15, 4-((S)-2-Fluoro-1-methyl-ethyl)-N-(2-methoxy-6-piperazin-1-yl-pyridin-3-yl)-benzenesulfonamide] | < 0.01 | >50 |
| Cc1nc(N2CCNCC2)ccc1NS(=O)(=O)c1ccc([C@@H](C)C(F)(F)F)cc1 [Example 12, 4-((R)-2,2,2-Trifluoro-1-methyl-ethyl)-N-(2-methyl-6-piperazin-1-yl-pyridin-3-yl)-benzenesulfonamide] | < 0.01 | >50 |
| Cc1nc(N2CCNCC2)ccc1NS(=O)(=O)c1ccc([C@H](C)CF)cc1 [Example 6, 4-((S)-2-Fluoro-1-methyl-ethyl)-N-[2-methyl-6-piperazin-1-yl-pyridin-3-yl]-benzenesulfonamide] | < 0.01 | >50 |
| Cc1nc(N2CCN[C@@H](C)C2)ccc1NS(=O)(=O)c1ccc([C@H](C)CF)cc1 [Example 1, 4-((S)-2-Fluoro-1-methyl-ethyl)-N-[2-methyl-6-((S)-3-methyl-piperazin-1-yl)-pyridin-3-yl]-benzenesulfonamide] | < 0.01 | >50 |
| COc1nc(N2CCNCC2)ccc1NS(=O)(=O)c1ccc(C(C)C(F)F)cc1 (centres unmarked) [Example 16, 4-(2,2-Difluoro-1-methyl-ethyl)-N-(2-methoxy-6-piperazin-1-yl-pyridin-3-yl)-benzenesulfonamide] | < 0.01 | >50 |

Source: patent US20100210664A1, “BENZENESULFONAMIDE COMPOUNDS SUITABLE FOR TREATING DISORDERS THAT RESPOND TO MODULATION OF THE DOPAMINE D3 RECEPTOR” (priority 2007, published 2010)
